# Reference: PMC12566703, “Design, Synthesis, In Vitro and In Silico Biological Evaluation of New Pyridine-2,5-Dicarboxylates Esters Bearing Natural Source Fragments as Anti-Trypanosomatid Agents” (Pharmaceutics, 2025)
# “And” between values parts separate entries of the source, which are not always exact repeats. Identical values can stand only once. Like-named read-outs stand apart in the source and are kept apart here.
# What was measured:
# [1] = test system: L. mexicana; design: method as in doi:10.2174/1573407213666170405121810; settings: pyridine compound of Figure 1A; read-out: IC50, leishmanicidal activity; cited from earlier work
# [2] = test system: Leishmania; design: method as in doi:10.1016/j.molstruc.2018.11.017; settings: natural product scaffold of Figure 1B; read-out: IC50, leishmanicidal activity; cited from earlier work
# [3] = test system: T. cruzi; settings: read-out: IC50, trypanocidal activity, cited from earlier work
# [4] = test system: L. mexicana (MHOM/MX/2017/UABJO17FCQEPS) (FCQEPS) promastigotes; experiment: In vitro leishmanicidal activity, MTT method, 48 h; format: cell-based, Leishmania mexicana; settings: for IC50: 48 h, promastigotes, FCQEPS strain, read-out: L. mexicana IC50 (µM ± SD) FCQEPS; for Selectivity Index L. mexicana FCQEPS: CC50 (J774.2)/IC50
# Procedure: (§1) To determine the leishmanicidal activity of pyridine-2,5-dicarboxylates, the parasites, in their logarithmic growth phase (5 × 10^5 parasites/mL), were cultured in 96-well microliter plates with the corresponding pyridine-2,5-dicarboxylate compound at different concentrations (0.78–100 µM). Compounds were dissolved in DMSO in a final volume of 200 µL for 48 h at 26 °C. Parasites treated with DMSO (0.2%) were used as a negative control, while treatments with Glucantime and Amphotericin B, at the same concentrations, were used as positive controls. The metabolic activity of the cells was determined using the 3-(4,5-Dimethylthiazol-2-yl)-2,5-diphenyltetrazolium bromide (MTT) method. IC50 was determined using probit analysis. Three independent experiments were performed in triplicate, and the data were analyzed for statistical significance (p < 0.05) using Biostat 5.3.0 software.
# [5] = test system: L. mexicana (MNYC/BZ/62/M379) (M379) promastigotes; experiment: In vitro leishmanicidal activity, MTT method, 48 h; format: cell-based, Leishmania mexicana; settings: for IC50: 48 h, read-out: L. mexicana IC50 (µM ± SD) M379; for Selectivity Index L. mexicana M379: CC50 (J774.2)/IC50
# Procedure: as §1
# [6] = test system: T. cruzi (NINOA) epimastigotes; experiment: In vitro trypanocidal activity, Alamar Blue assay, 48 h; format: cell-based, Trypanosoma cruzi; settings: for IC50: Trypanosoma cruzi, 48 h, read-out: T. cruzi IC50 (µM ± SD) NINOA
# Procedure: (§2) Both strains were maintained in liver infusion tryptose (LIT) medium supplemented with 10% FBS and 0.1% penicillin-streptomycin. They were preserved by transferring 1 × 10^6 parasites/mL into a new culture medium every week. […] The metabolic activity was determined by the Alamar Blue assay. Briefly, after the incubation period, 20 µL of 2.5 mM resazurin solution was added to each well and incubated for 3 h. Three independent experiments were performed in triplicate. The half-maximum inhibitory concentration (IC50) was determined using probit analysis.
# [7] = test system: T. cruzi (A1) epimastigotes; experiment: as above; format: cell-based, Trypanosoma cruzi; settings: for Selectivity Index T. cruzi A1: CC50 (J774.2)/IC50; for IC50: Trypanosoma cruzi, 48 h, epimastigotes, A1 strain, read-out: T. cruzi IC50 (µM ± SD) A1
# Procedure: as §2
# [8] = Cytotoxicity assay, MTT method, 48 h; format: cell-based, murine; settings: mouse, J774.2 macrophage cells, J774.2 cell line, read-out: Macrophage J774.2 CC50 (µM ± SD)
# Procedure: (§3) A cytotoxicity assay was performed using the murine macrophage J774.2 cell line, which was recloned from the original ascites and solid tumor J774.1 (according to the manufacturer). The cells were cultured in RPMI medium supplemented with 10% SBF, 100 U […] penicillin, 100 µg/mL streptomycin, and glutamine (2 mM), and 5% CO2 atmosphere. The medium was changed every 2–3 days. Macrophages were used at 1 × 10^6 cells and were incubated with compounds at different concentrations (0.75–100 µM, respectively) at 37 °C for 48 h in a 5% CO2 atmosphere. DMSO was used as a negative control (0.2%). The metabolic activity of macrophages was determined by the MTT method. The percentage of cell viability was calculated, and the half-maximal cytotoxic concentration (CC50) was determined using probit analysis. Three independent assays were conducted in triplicate.
# [9] = test system: murine macrophage J774.2 cell line; experiment: Cytotoxicity assay, MTT method, 48 h; format: cell-based; settings: read-out: Macrophage J774.2 CC50 (µM ± SD)
# Procedure: as §3
# [10] = Leishmania mexicana, promastigotes, M379 strain
compound,measurement,setting,value
Cc1ccc(O)c(C(=O)c2cnc3[nH]nc(C)c3c2)c1 [Compound 7],IC50,[1],31 µM
CC1=CC[C@H](C(C)(C)NC(=S)N/N=C/c2ccc([N+](=O)[O-])cc2)CC1 [Compound 8d],IC50,[2],2.4 µM
Clc1ccc(-c2csc(N/N=C/c3ccccn3)n2)cc1Cl [Compound 11],IC50,[3]; pyridine compound of Figure 1A,4 µM
CCOC(=O)c1nc(C)c(C(=O)OCCC(C)CCC=C(C)C)cc1-c1ccc(C)cc1 (stereo not shown) [Compound 11b],IC50,[4]; Leishmania mexicana,> 200 µM
same,IC50,[5]; [10],> 200 µM
same,"Leishmanicidal activity class in words, M379 strain","[5]; promastigotes, M379 strain, classes by IC50",did not have antiparasitic activity
same,IC50,"[6]; epimastigotes, NINOA strain",> 200 µM
same,"Trypanocidal activity class in words, NINOA strain","[6]; epimastigotes, NINOA strain, classes by IC50",inactive
same,Selectivity Index T. cruzi A1,[7],3.3
same,IC50,[7],51.6 ± 0.59 µM
same,CC50 at 48 h,[8],169 µM
same,CC50,[9],169.8 ± 1.3 µM
CCOC(=O)c1nc(C)c(C(=O)OC/C=C(\C)CCC=C(C)C)cc1-c1ccc(F)cc1 [Compound 12c],Selectivity Index L. mexicana FCQEPS,[4],>1.7
same,IC50,[4]; Leishmania mexicana,114 ± 7.03 µM
same,Selectivity Index L. mexicana M379,[5],>2.3
same,IC50,[5]; [10],85.98 ± 0.02 µM
same,Selectivity Index T. cruzi NINOA,[6]; CC50 (J774.2)/IC50,>4.1
same,IC50,"[6]; epimastigotes, NINOA strain",49.1 ± 2.5 µM
same,Selectivity Index T. cruzi A1,[7],>4.0
same,IC50,[7],50.1 ± 1 µM
same,CC50 at 48 h,[8],> 200 µM
"CNC[C@H](O)[C@@H](O)[C@H](O)[C@H](O)CO.[O]=[Sb](=[O])[OH] [Glc, Glucantime, reference compound]",Selectivity Index L. mexicana FCQEPS,[4],2.2
same,Selectivity Index L. mexicana FCQEPS,[4]; listed as Glucantime,2.18 and 2
same,IC50,[4]; listed as Glucantime,> 125 µM
same,IC50,[4],125 ± 11.6 µM
same,Selectivity Index L. mexicana M379,[5],2.0
same,Selectivity Index L. mexicana M379,[5]; listed as Glucantime,2.03
same,IC50,"[5]; promastigotes, M379 strain, listed as Glucantime",134 µM and > 125 µM
same,IC50,"[5]; promastigotes, M379 strain",134 ± 4.32 µM
same,CC50,[9],273 µM
CC1=CC[C@@H](C(C)(C)Nc2nnc(-c3ccc(C)cc3)s2)CC1 [TDZ 2],IC50,[3]; natural product scaffold of Figure 1B,1.3 µM
